Earlier results as cited in patent US10308909B2, “Dried spore germinative compound mixtures” (Envera, LLC, priority 2013, dated 2019).

Columns and labels:
bacterial spores = details: concentrations as low as

| Molecule | concentration that inhibits germination (bacterial spores) | inhibition of Bacillus germination (Bacillus) |
| --- | --- | --- |
| Oc1ccccc1 [phenol] | 0.2 % (wt./vol) |  |
| cresol | 0.08 % (wt./vol) |  |
| C[C@@H](N)C(=O)O [D-alanine] |  | powerful inhibitor of Bacillus germination |
